This assay has as its system Hepatitis C replicon. Put plainly: HCV replicon assay (NPT ELISA readout) in Huh-7 replicon-containing cells. Type of assay: cell-based, Hepatitis C virus. Particulars: Hepatitis C virus, 72 h; HCV replicon in Huh-7 cells, three days incubation. Put shortly: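 Huh-7 cells carrying a neo-containing HCV subgenomic replicon (NS3-NS5B) were plated overnight, then exposed to compound (generally 6 concentrations, 10 to 0.03 μM) for three days at 37 °C. Replication was read as NPT level by captured ELISA; interferon alpha served as positive control.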
Background: A replicon is a self-replicating genome or part of one, used to study replication in cells.

pEC50: −log10 of the molar value.

For `COc1ccc2c(O[C@@H]3C[C@H]4C(=O)N[C@]5(C(=O)NS(=O)(=O)C6CC6)C[C@H]5/C=C\CCCCC[C@H](CC(=O)N5CCCC(F)(F)C5)C(=O)N4C3)cc(-c3ccccn3)nc2c1Cl` [Compound 91, (2R,6R,14aR,16aS,Z)-2-(8-chloro-7-methoxy-2-(pyridin-2-yl)quinolin-4-yloxy)-N-(cyclopropylsulfonyl)-6-(2-(3,3-difluoropiperidin-1-yl)-2-oxoethyl)-5,16-dioxo-1,2,3,5,6,7,8,9,10,11, 13a,14,14a,15,16,16a-hexadecahydrocyclopropa [e]pyrrolo[1,2-a][1,4] diazacyclopentadecine-14a-carboxamide], the pEC50 (usually the EC50 on a negative log10 scale, so that one unit is a factor of ten) is greater than 6.00.
In turn, `COc1ccc2c(O[C@@H]3C[C@H]4C(=O)N[C@]5(C(=O)NS(=O)(=O)C6CC6)C[C@H]5/C=C\CCCCC[C@H](CC(=O)N5CCN(C(=O)OC(C)(C)C)CC5)C(=O)N4C3)cc(-c3ccccc3)nc2c1` [Compound 67, tert-butyl 4-(2-((2R,6R, 13aS,14aR,16aS,Z)-14a-(cyclopropylsulfonyl-carbamoyl)-2-(7-methoxy-2-phenylquinolin-4-yloxy)-5,16-dioxo-1,2,3,5,6,7,8,9,10,11, 13a,14,14a,15,16,16a-hexadecahydrocyclopropa [e]pyrrolo[1,2-a][1,4]diazacyclopentadecin-6-yl)acetyl)piperazine-1-carboxylate] had a pEC50 greater than 6.00.
To `COc1ccc2c(O[C@@H]3C[C@H]4C(=O)N[C@]5(C(=O)NS(=O)(=O)C6CC6)C[C@H]5/C=C\CCCCC[C@H](CC(=O)N5CC[C@@H](C(C)(C)N)C5)C(=O)N4C3)cc(-c3ccccc3)nc2c1` [Compound 107, (2R,6R,14aR,16aS, Z)-6-(2-((R)-3-(2-aminopropan-2-yl)pyrrolidin-1-yl)-2-oxoethyl)-N-(cyclopropylsulfonyl)-2-(7-methoxy-2-phenylquinolin-4-yloxy)-5,16-dioxo-1,2,3,5,6,7,8,9,10,11, 13a,14,14a,15,16,16a-hexadecahydrocyclopropa [e]pyrrolo[1,2-a][1,4] diazacyclopentadecine-14a-carboxamide] belongs greater than 6.00; to `COc1ccc2c(O[C@@H]3C[C@H]4C(=O)N[C@]5(C(=O)NS(=O)(=O)C6CC6)C[C@H]5/C=C\CCCCC[C@H](CC(=O)N5CCC(F)(F)CC5)C(=O)N4C3)cc(-c3ccccc3)nc2c1` [Compound 61, (2R,6R,13aS, 14aR,16aS,Z)-N-(cyclopropylsulfonyl)-6-(2-(4,4-difluoropiperidin-1-yl)-2-oxoethyl)-2-(7-methoxy-2-phenylquinolin-4-yloxy)-5,16-dioxo-1,2,3,5,6,7,8,9,10,11, 13a,14,14a,15,16,16a-hexadecahydrocyclopropa [e]pyrrolo[1,2-a][1,4] diazacyclopentadecine-14a-carboxamide], greater than 6.00.
To `COc1ccc2c(O[C@@H]3C[C@H]4C(=O)N[C@]5(C(=O)NS(=O)(=O)C6CC6)C[C@H]5/C=C\CCCCC[C@H](CC(=O)N5CC(C)OC(C)C5)C(=O)N4C3)cc(-c3ccccc3)nc2c1` (stereo partly drawn) [Compound 76, (2R,6R,13aS, 14aR,16aS,Z)-N-(cyclopropylsulfonyl)-6-(2-(2,6-dimethylmorpholino)-2-oxoethyl)-2-(7-methoxy-2-phenylquinolin-4-yloxy)-5,16-dioxo-1,2,3,5,6,7,8,9,10,11, 13a,14,14a,15,16,16a-hexadecahydrocyclopropa [e]pyrrolo[1,2-a][1,4] diazacyclopentadecine-14a-carboxamide] belongs greater than 6.00; to `COc1ccc2c(O[C@@H]3C[C@H]4C(=O)N[C@H](C(=O)NS(=O)(=O)C5CC5)C/C=C\CCCCC[C@H](CC(=O)N5CCCCC5)C(=O)N4C3)cc(-c3ccccc3)nc2c1` [Compound 57, (3S,12R,16R,17aS,Z)-N-(cyclopropylsulfonyl)-16-(7-methoxy-2-phenylquinolin-4-yloxy)-1,13-dioxo-12-(2-oxo-2-(piperidin-1-yl)ethyl)-2,3,4,7,8,9,10,11, 12,13,15,16,17,17a-tetradecahydro-1H-pyrrolo[1,2-a][1,4] diazacyclopentadecine-3-carboxamide], 5.00 to 6.00; to `O=C1N[C@]2(C(=O)NS(=O)(=O)C3CC3)C[C@H]2/C=C\CCCCC[C@H](CC(=O)N2CCC(C(F)(F)F)CC2)C(=O)N2C[C@H](Oc3cc(-c4ccccn4)nc4c5c(ccc34)OCC5)C[C@@H]12` [Compound 83, (2R,6R,14aR,16aS,Z)-N-(cyclopropylsulfonyl)-5,16-dioxo-6-(2-oxo-2-(4-(trifluoromethyl)piperidin-1-yl)ethyl)-2-(2-(pyridin-2-yl)-8,9-dihydrofuro[2,3-h]quinolin-4-yloxy)-1,2,3,5,6,7,8,9,10,11, 13a,14,14a,15,16,16a-hexadecahydrocyclopropa [e]pyrrolo[1,2-a][1,4] diazacyclopentadecine-14a-carboxamide], greater than 6.00.
Under `COc1ccc2c(O[C@@H]3C[C@H]4C(=O)N[C@]5(C(=O)NS(=O)(=O)C6CC6)C[C@H]5/C=C\CCCCC[C@H](CC(=O)N5CCC(C(F)(F)F)CC5)C(=O)N4C3)nc(-c3ccccn3)cc2c1Cl` [Compound 132, (2R,6R,14aR,16aS,Z)-2-(5-chloro-6-methoxy-3-(pyridin-2-yl)isoquinolin-1-yloxy)-N-(cyclopropylsulfonyl)-5,16-dioxo-6-(2-oxo-2-(4-(trifluoromethyl)piperidin-1-yl)ethyl)-1,2,3,5,6,7,8,9,10,11, 13a,14,14a,15,16,16a-hexadecahydrocyclopropa [e]pyrrolo[1,2-a][1,4] diazacyclopentadecine-14a-carboxamide] stands greater than 6.00.
As for `COc1ccc2c(O[C@@H]3C[C@H]4C(=O)N[C@@H](C(=O)NS(=O)(=O)C5CC5)C/C=C\CCCCC[C@H](CC(=O)N5CCCCC5)C(=O)N4C3)cc(-c3ccccc3)nc2c1` [Compound 56, (3R,12R,16R,17aS, Z)-N-(cyclopropylsulfonyl)-16-(7-methoxy-2-phenylquinolin-4-yloxy)-1,13-dioxo-12-(2-oxo-2-(piperidin-1-yl)ethyl)-2,3,4,7,8,9,10,11, 12,13,15,16,17,17a-tetradecahydro-1H-pyrrolo[1,2-a][1,4] diazacyclopentadecine-3-carboxamide], the pEC50 was 5.00 to 6.00.
`COc1ccc2c(O[C@@H]3C[C@H]4C(=O)N[C@]5(C(=O)NS(=O)(=O)C6CC6)C[C@H]5/C=C\CCCCC[C@H](CC(=O)N5CC[C@H](N)C5)C(=O)N4C3)cc(-c3ccccc3)nc2c1` [Compound 102, (2R,6R,14aR,16aS, Z)-6-(2-((S)-3-aminopyrrolidin-1-yl)-2-oxoethyl)-N-(cyclopropylsulfonyl)-2-(7-methoxy-2-phenylquinolin-4-yloxy)-5,16-dioxo-1,2,3,5,6,7,8,9,10,11, 13a,14,14a,15,16,16a-hexadecahydrocyclopropa [e]pyrrolo[1,2-a][1,4] diazacyclopentadecine-14a-carboxamide] gave a pEC50 greater than 6.00.
Under `COc1ccc2c(O[C@@H]3C[C@H]4C(=O)N[C@]5(C(=O)NS(=O)(=O)C6CC6)C[C@H]5/C=C\CCCCC[C@H](CC(=O)NC5CCCC5)C(=O)N4C3)cc(-c3ccccc3)nc2c1` [Compound 73, (2R,6R,13aS,14aR, 16aS,Z)-6-(2-(cyclopentylamino)-2-oxoethyl)-N-(cyclopropylsulfonyl)-2-(7-methoxy-2-phenylquinolin-4-yloxy)-5,16-dioxo-1,2,3,5,6,7,8,9,10,11, 13a,14,14a,15,16,16a-hexadecahydrocyclopropa [e]pyrrolo[1,2-a][1,4] diazacyclopentadecine-14a-carboxamide] stands greater than 6.00.

Values taken from patent US8697641B2, “4-amino-4-oxobutanoyl peptide cyclic analogues, inhibitors of viral replication” (Achillion Pharmaceuticals, Inc., priority 2008, dated 2014).
